Assay results from patent publication US10391070B2, “Compositions and methods for treating neurological diseases or injury” (MUSC FOUNDATION FOR RESEARCH DEVELOPMENT, priority 2012, dated 2019).

Test system: HT-22 neuronal cells
Test: Respirometry (OCR, ECAR; Seahorse XF-96)
Format: cell-based, mouse
Parameters: ECAR (glycolysis), difference from control: unit not given here
Details: HT-22 cells, mean±SEM
Method: Oxygen consumption rates (OCR) and extracellular acidification rates (ECAR) of HT-22 neuronal cells were performed on the XF-96 Extracellular Flux Analyzer (Seahorse Bioscience) using standard methods (Beeson et al., 2010). In brief, cells were cultured in 96 well Seahorse plates in DMEM high glucose media (Invitrogen) supplemented with 10% FBS, 10 mM HEPES, and 1% antibiotic-antimycotic (Invitrogen). The media was replaced with DMEM media supplemented with 25 mM glucose, 10 mM sodium pyruvate, 31 mM NaCl, and 2 mM glutamine at pH 7.4. Each of the four drug ports on the Seahorse sensor cartridge were filled with test compound (media only, 5 μM NQN-1, 10 μM VK3 or 12.5 μM MB), 10 μM oligomycin, 1 μM FCCP, and 5 μM rotenone, which were injected into each well at 20, 80, 110, and 135 min, respectively. The pmol/min OCR rate for each well (9-52 wells/group) was measured. Wells were excluded from the analysis if their OCR values surpassed the Tukey Outlier Rule. In order to standardize the OCR rates across wells, the average OCR value at 17 min (last time point prior to injection of the test compounds) for each experimental group was calculated, and set to 100. All OCR values are given as a percentage of this pre-treatment value. […]

SMILES: CN(C)c1ccc2nc3ccc(=[N+](C)C)cc-3sc2c1.[Cl-] [MB, reference compound]
- basal cellular respiration, difference in OCR from control (1 h treatment, OCR as percentage of pre-treatment value): 53.21±5.92
- basal mitochondrial respiration, difference from control (basal minus non-mitochondrial (rotenone)): 19.22±6.54
- ATP-linked respiration, difference from control (basal minus oligomycin): 19.76±6.59
- ECAR (glycolysis), difference from control: −0.86±1.26
